The values that follow come from patent publication US20070270350A1, “Methods and Compositions for the Prevention and Treatment of Inflammatory Diseases or Conditions” (MUSC FOUNDATION FOR RESEARCH DEVELOPMENT, priority 2003, published 2007).

Entries after “also recorded” stand apart in the source; their conditions may differ.

Data set [1] deals with T1, lactosylceramide synthase (GalT-2) (Rattus norvegicus, UniProt O88419).
T1 construct: endogenous in cells; host or cells: primary astrocytes
T1 sequence (O88419 1-382): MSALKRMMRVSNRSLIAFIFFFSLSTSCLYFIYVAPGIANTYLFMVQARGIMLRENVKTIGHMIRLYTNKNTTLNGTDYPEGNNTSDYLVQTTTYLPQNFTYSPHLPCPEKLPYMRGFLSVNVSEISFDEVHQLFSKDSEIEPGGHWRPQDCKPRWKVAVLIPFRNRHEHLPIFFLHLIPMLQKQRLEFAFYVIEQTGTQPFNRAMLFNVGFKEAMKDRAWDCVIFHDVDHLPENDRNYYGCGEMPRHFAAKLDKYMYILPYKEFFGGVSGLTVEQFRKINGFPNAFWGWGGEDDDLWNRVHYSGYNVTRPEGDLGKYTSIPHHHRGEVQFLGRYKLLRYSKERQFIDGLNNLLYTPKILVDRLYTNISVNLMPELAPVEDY
Kind of data set: Measurement of lactosylceramide synthesis in primary astrocytes. In kind it is cell-based. The note with it: D-PDMP pretreatment 0.5 hr; 14C-galactose labelling, HPTLC. The method, then: Measurement of lactosylceramide synthesis. Cultured cells were incubated in growth medium containing [^14C] galactose (5 ? Ci/ml) for 24 h as described previously. The medium was removed, and the cell monolayer was washed with sterile PBS to remove nonspecifically adsorbed radioactivity and fresh serum free medium was added. After the stimulation of cells with LPS/IFN ? (1 ? g/ml; 10 U/ml) for various durations cells were then harvested and washed with ice cold PBS and lysed by sonication. Following protein quantification, […] of protein was used for extraction of lipids using Chloroform:Methanol:HCl (100:100:1). The organic phase was dried under nitrogen. Glycosphingolipids were resolved by high performance thin layer chromatography using chloroform/methanol/0.25% KCl (70:30:4, v/v/v) as the developing solvent. The chromatographic plate was dried in air and stained with iodine vapors. The gel area corresponding to LacCer was scraped, and radioactivity was measured employing “liquiscint” (NEN Life Science Products) as a scintillating fluid.

The test system of data set [2] is ERK1/2. Kind of data set: ERK1/2 phosphorylation by immunoblot after LPS/IFN. The format is cell-based, rat. Particulars: D-PDMP pretreatment; LPS/IFN 20 minutes. The method, then:
Western Blot Analysis. For iNOS protein, the cells were washed with cold Tris buffered saline (TBS; 20 mM Trizma base, and 137 mM NaCl, pH 7.5), lysed in 1×SDS sample loading buffer (62.5 mM Trizma base, 2% w/v SDS, 10% glycerol), following sonication and centrifugation at 1,5000×g for 5 min, the supernatant was used for the iNOS western immunoblot assay. The protein concentration of samples was determined with the detergent compatible protein assay reagent (Bio-Rad Laboratories, CA) using bovine serum albumin (BSA) as the standard. Sample was boiled for 3 min with 0.1 volumes of 10% O-mercaptoethanol and 0.5% bromophenol blue mix. Fifty μg of total cellular protein was resolved by electrophoresis in 8 or 12% polyacrylamide gels, electro-transferred to polyvinylidene difluoride (PVDF) filter and blocked with Tween 20 containing Tris-buffered saline [TBST; 10 mM Trizma base (pH 7.4), 1% Tween 20, and 150 mM NaCl] with 5% skim milk. After incubation with antiserum against iNOS (BD PharMingen, CA), or hRas (Upstate Biotechnology, CA), or phospho-specific MAPK (p42/44) (Signal Transduction), in PVDF buffer for 2 h at room temperature, the filters were washed 3 times with TBST buffer and then incubated with horseradish peroxidase conjugated anti-rabbit or mouse IgG for 1 h. The membranes were autoradiographed by using ECL-plus (Amersham Pharmacia Biotech) after washing with TBST buffer.

Data set [3] has as its system SCI rats. In kind it is in vivo.
In data set [4] the test system is small GTPase Ras. Kind of data set: Quantification of Ras activation (GST-Raf-1 Ras binding domain). In kind it is cell-based, rat. Particulars: D-PDMP 50 μM pretreatment; LPS/IFN 5 mins. The procedure: Quantification of Ras Activation. After stimulation, primary astrocytes in 6 well plates were washed with PBS and lysed in membrane lysis buffer (MLB; 0.5 ml of 25 mM HEPES, pH7.5, 150 mM NaCl, 1% Igepal CA-630, 0.25% sodium deoxycholate, 10% glycerol, 10 mM MgCl2, 1 mM EDTA, 25 mM NaF, 1 mM of sodium orthovanadate, and EDTA free Complete™ protease inhibitor cocktail). After centrifugation (5,000×g) at 4° C. for 5 min, supernatant was used for Ras activation assay. One hundred μg of supernatant was used for binding with agarose conjugated Ras-binding domain (RBD) of Raf-1 which was expressed in BL21 (Invitrogen) Escherichia coli strain transformed by pGEX-2T-GST-RBD in the presence of 0.1 mM of IPTG as described previously (Herrmann et al., 1995). The binding reaction was performed at 4° C. for 30 min in MLB. Following washing with MLB three times, Ras-RBD complex were denatured by adding of 2×SDS sample buffer. Ras protein was identified by western immunoblot analysis with Ras antibodies from Upstate Biotechnology.

Where [5] appears, read: D-PDMP 20 mg/kg, 24 hrs following injury.

With `CCCCCCCCCC(=O)NC(CN1CCOCC1)C(O)c1ccccc1.Cl` [D-PDMP, D-threo-1-Phenyl-2-decanoylamino-3-morpholino-1-propanol HCl], the “increase in LacCer biosynthesis following LPS/IFN stimulation” value in data set [1] is listed as “inhibited this increase”. In data set [2], the “LPS/IFN induced phosphorylation of ERK 1/2” value is reported as “inhibited”. For the same compound, the “iNOS mRNA and protein expression at the site of injury” value in data set [3] (D-PDMP 20 mg/Kg i.p. within 10 minutes following SCI, 12 hrs) is recorded as “markedly suppresses; also recorded: significantly lower”. Further, in data set [3] (setting [5]), the “GFAP expression (immunofluorescence, lesion epicenter)” value was “significantly reduced” and the “iNOS expression (immunofluorescence, lesion epicenter)” value is given as “significantly reduced”. In addition, in data set [3] (D-PDMP treated SCI rats), the “SCI induced white matter vacuolization and tissue necrosis (H&E)” value is “inhibited”; the “apoptosis of neurons and other cells (TUNEL/NeuN)” value is listed as “protection against apoptosis”; the “demyelinization (LFB staining)” value was “attenuated”. The “adverse effect on neuronal survival” value in data set [3] (D-PDMP treated sham operated animals) is “no adverse effect”. In addition, the “LPS/IFN mediated activation of Ras” value in data set [4] is reported as “reduced”.
